Measured values published in patent publication EP3192802A1, “STABILIZED PEPTIDE DERIVATIVES” (Bicycle Therapeutics Limited, priority 2016, dated 2017).

Tests used:
MT1-MMP [1] = target: T1, MT1-MMP (Homo sapiens, UniProt P50281); assay: fluorescence polarisation competition experiments (affinity to MT1-MMP); type: binding; conditions: tris-sulfone version, Figure 2
Description: Subsequently, the affinity to the MT1-MMP target was measured by fluorescence polarisation competition experiments for 17-69-07-N241, and its sulfone versions (Figure 2).

MT1-MMP [2] = target: T1, MT1-MMP; assay: selectivity / cross-reactivity against other MMPs; type: binding; conditions: does not cross-react with MMP-1, MMP-2, MMP-15 and MMP-16

| Kd (MT1-MMP [1]) | selectivity for MT1-MMP (MT1-MMP [2]) | Compound |
| --- | --- | --- |
| ~10 nM | – | C[C@H](NC(=O)CN(C)C(=O)CN(C)C(=O)CN(C)C(=O)CN(C)C(=O)CN(C)C(=O)CN(C)C(=O)CN(C)C(=O)CN(C)C(=O)CN(C)C(=O)CN(C)C(=O)CCN)C(=O)N[C@H]1CS(=O)(=O)Cc2cc3cc(c2)CS(=O)(=O)C[C@H](NC(=O)[C@@H](C)NC(=O)[C@H](Cc2cccc4ccccc24)NC(=O)[C@H](CCC(=O)O)NC(=O)[C@H](CC(N)=O)NC(=O)[C@@H](C)NC1=O)C(=O)N[C@@H](CCC(=O)O)C(=O)N[C@@H](CC(=O)O)C(=O)N[C@@H](Cc1ccccc1)C(=O)N[C@@H](Cc1ccc(O)cc1)C(=O)N[C@@H](CC(=O)O)C(=O)N[C@@H](C(C)(C)C)C(=O)N[C@H](C(N)=O)CS(=O)(=O)C3 [17-69-07-N338] |
| – | uniquely selective for MT1-MMP | -Ci-Y-N-E-F-G-Cii-E-D-F-Y-D-I-Ciii- [17-69-07] |
